# In US20160045531A1, “COMBINATION THERAPY FOR TREATING CANCER” (EPIZYME, INC., priority 2014, published 2016):
# Key:
# [1] = system: MV4-11 (MLL-AF4 expressing acute biphenotypic leukemia cell line); assay: Combination proliferation study with Compound A2 (Examples 2/3), MV4-11; assay type: cell-based, human; conditions: in combination with Compound A2; Chou-Talalay CI
# Experimental: (§1) The HP-D300 digital dispenser (Tecan) was used to dispense compounds in a combinatorial matrix. […] Cell viability was measured via ATP content using CellTiter-Glo® (Promega).
# (§2) Viability was determined using CellTiter-Glo® (Promega).
# [2] = system: SKM-1 (non-MLL-rearranged AML); assay: Combination proliferation study with Compound A2 (Examples 2/3), SKM-1; assay type: cell-based, human
# Experimental: as §1, §2
# [3] = system: MV4-11 (MLL-AF4); assay: Proliferation assay and calculation of synergism (Example 5), MV4-11; assay type: cell-based, human; conditions: 7 Day Cotreatment Model; Chou-Talalay CI
# Experimental: MV4-11 cells were maintained in IMDM supplemented with 10% fetal bovine serum. […] They were cultured in flasks or plates in a humidified 5% CO2 atmosphere.
# (§4) Proliferation studies were performed using MOLM-13, MV4-11 and SKM-1 cell lines in vitro to evaluate the cancer cell killing effect of a combination of two agents together on cell growth. Initial proliferation studies were performed to determine the IC50 values of a given compound in each cell line. The cell counts were measured by ATP quantitation using the Promega Cell Titer Glo kit and luminescence values correspond to the amount of ATP in a given well.
# (§5) These studies were performed to evaluate both the combinatorial effect of compounds on cell killing and the durability of the effect by washing out one of the agents.
# (§6) Compounds evaluated for synergy in the co-treatment phase were tested in a range which was bracketed around the IC50's. The compounds were plated to a 96 well plate in a matrix format which includes increasing concentrations of each drug in the combination in a constant ratio, in addition to the effect of each compound alone in the study. […] Maximum and minimum inhibition (DMSO alone) controls were used in each plate to calculate fraction affected (Fa) of a test well. DMSO concentration was kept at 0.1% v/v. The drug combination analysis was performed utilizing the Chou-Talalay method. Synergy was determined using the software package Calcusyn by Biosoft. The combination index (CI) is the term used to describe the level of synergy or antagonism in a given test system. A combination index less than one indicates synergy, and a CI greater than one indicates antagonism.
# (§7) The drug combination analysis was performed using the Chou-Talalay method. Graphs representing values of combination index (CI) versus Fractional effect (Fa) known as Fa-CI plots were generated and synergy was evaluated. Drug synergy was statistically defined by CI values less than 1, antagonism by CI>1 and additive effect by CI equal to 1.
# [4] = system: MOLM-13 cells; assay: Pre-treatment model with reverse order of addition (Ara-C first), MOLM-13; assay type: cell-based, human; conditions: Ara-C 3 days
# Experimental: MOLM-13 cells were pretreated with 9 concentrations of Ara-C or DMSO for 3 days.
# Cell viability was measured via ATP content using CellTiter-Glo® (Promega).
# In addition, the effect of sequence of addition of compounds was studied by measuring the ten day proliferation of cells pretreated with Ara-C in a 3+7 model. This experiment was performed by first pretreating MOLM-13 cells with increasing concentrations of Ara-C for 3 days.
# [5] = system: MOLM-13 cells; assay: CD11b and CD14 expression by flow cytometry, MOLM-13; assay type: cell-based, human
# Experimental: (§3) On Day 0 MOLM-13 cells are seeded at 3,000 cells/mL. On Day 7 and Day 10 MOLM-13 cells are counted and reseeded at 50,000 cells/mL. […] On Day 10 They were redosed again. On Day 14 the experiment was terminated.
# The cells were prepared by washing twice in PBS, followed by fixation in 4% formaldehyde for ten minutes at 37° C. After fixation cells were washed and blocked with blocking buffer for 10 minutes at room temperature. Cells were then incubated in presence of anti-CD14, anti-CD11b or anti-IgG antibody for 1 hour at room temperature while rotating. Cells were washed, re-suspended in PBS and 5,000 events were analyzed using ExpressPro software on the GuavaCyte Plus System.
# [6] = system: MV4-11 (MLL-AF4) cell line; assay: Combination proliferation study with Compound A2 (Example 1), MV4-11; assay type: cell-based, human; conditions: 7 Day Cotreatment; Chou-Talalay CI
# Text: The acute myelogenous leukemia cell lines MV4-11 (MLL-AF4) and MOLM-13 (MLL-AF9) were obtained from American Type Culture Collection (ATCC; Rockville, Md.) and Deutsche Sammlung von Mikroorganismen and Zellkulturen (DSMZ; Braunschweig, Germany) respectively. […] Further, strong synergism is achieved when the CI value falls below 0.3.
# [7] = system: MOLM-13 cells; assay: Flow cytometric analysis of cell cycle and Annexin V, MOLM-13; assay type: cell-based, human; conditions: for Apoptosis induction over 14 day course, single agent / Sub-G1 cell population, single agent: 156 nM Compound A2 or 63 nM Ara-C; for Sub-G1 cell population, single agent: 14 day treatment
# Experimental: as §3
# To evaluate the fraction of cells in each cell cycle, flow cytometric analysis was performed. FACS analysis for detection of cell death by apoptosis, and cell cycle was performed.
# Samples were analyzed using the Guava EasyCyte Plus System (Millipore). Cells for cell cycle analysis were pelleted by centrifugation at 200×g for 5 minutes at 4° C., washed twice with ice cold PBS then fixed with 70% ice cold ethanol. All samples were analyzed together at end of experiment. Following fixation cells were washed with PBS and stained with the Guava cell cycle reagent (Millipore 4500-0220) for 30 minutes. Samples were analyzed using the Guava EasyCyte Plus System (Millipore).
# [8] = system: rat xenograft model of MLL-rearranged leukemia; conditions: cited from earlier work
# [9] = system: SKM-1 cells; assay: Proliferation assay and calculation of synergism (Example 5), SKM-1; conditions: non-MLL-rearranged leukemia cell line SKM-1
# Text: The acute myelogenous leukemia cell line MV4-11 (MLL-AF4) (CRL-9591) was obtained from American Type Culture Collection (ATCC), Manassas, Va. and both MOLM-13 (MLL-AF9) (ACC 554) and SKM-1 (ACC 547) cells were obtained from Leibniz Institute DSMZ-German Collection of Microorganisms and Cell Cultures, Braunschweig, Germany. MV4-11 cells were maintained in IMDM supplemented with 10% fetal bovine serum. MOLM-13 and SKM-1 cells were maintained in Roswell Park Memorial Institute medium (RPMI) supplemented with 10% fetal bovine serum. They were cultured in flasks or plates in a humidified 5% CO2 atmosphere.
# as §4, §5, §6, §7
# [10] = system: acute leukemia lines bearing MLL translocations; conditions: sparing lines without MLL gene translocations; cited from earlier work
# [11] = system: H3K79me2; conditions: cited from earlier work
structure (smiles),measurement,setting,value
"Nc1ccn([C@@H]2O[C@H](CO)[C@@H](O)[C@@H]2O)c(=O)n1 [Ara-C, cytarabine]","Combination studies with Compound A2, MV4-11 MLL-AF4",[1],Strong
same,"Combination studies with Compound A2, SKM-1 AML: Non-rearranged",[2]; in combination with Compound A2,No Combination
same,"Combination with Compound A2, MV4-11 (MLL-AF4)",[3],Strong Synergy
same,"Combination with Compound A2, Ara-C pretreatment then cotreatment",[4]; then Compound A2 and Ara-C 7 days,Synergy
same,"Combination with Compound A2, Ara-C pretreatment then washout","[4]; washed out, then Compound A2 7 days",Combination benefit is maintained
same,"Differentiation markers CD11b and CD14, combination with Compound A2",[5],time and concentration dependent up-regulation
same,"Differentiation markers CD11b and CD14, single agent",[5],time and concentration dependent up-regulation
same,"Combination effect with Compound A2 on proliferation, MV4-11",[6],Synergy (A combination index less than one indicates synergy)
same,"Apoptosis induction over 14 day course, single agent",[7]; MOLM-13,modest increase in apoptotic cell population
same,"Apoptosis induction over 14 day course, combination with Compound A2","[7]; MOLM-13, 156 nM Compound A2 plus 63 nM Ara-C",enhance apoptosis
same,"Sub-G1 cell population, combination with Compound A2","[7]; MOLM-13, 156 nM Compound A2 plus 63 nM Ara-C, 10 and 14 days",significant increase in the population of sub-G1 cells
same,"Sub-G1 cell population, single agent",[7]; MOLM-13,minimal effect
"CC(C)N(C[C@H]1O[C@@H](n2cnc3c(N)ncnc32)[C@H](O)[C@@H]1O)[C@H]1C[C@@H](CCc2nc3cc(C(C)(C)C)ccc3[nH]2)C1 [Compound A2, (2R,3R,4S,5R)-2-(6-amino-9H-purin-9-yl)-5-((((1r,3S)-3-(2-(5-(tert-butyl)-1H-benzo[d]imidazol-2-yl)ethyl)cyclobutyl) (isopropyl)amino)methyl) tetrahydrofuran-3,4-diol]",Tumor response in xenograft,[8],sustained tumor regressions
same,Single agent antiproliferative activity in SKM-1,[9],no single agent activity
same,Single agent antiproliferative effect in SKM-1,[2]; non-rearranged SKM-1 cell line,no effect alone
same,Cell killing in vitro,[10],promoted cell killing
same,"Differentiation markers CD11b and CD14, single agent",[5],time and concentration dependent up-regulation
same,Inhibition of intracellular DOT1L activity (H3K79 methylation),[11]; across a spectrum of AML cell lines,concentration-dependent inhibition of H3K79 methylation
same,Time for H3K79me2 to return to pretreatment levels after the latency period,[11]; after the 3-day latency period,4 days
same,Period without recovery of H3K79 methylation after wash out,[11]; after wash out of Compound A2,3 days
same,Depletion of cellular levels of H3K79me2,[11]; four days of treatment,> 80%
same,EC50,"[7]; Homo sapiens, 168 h, MOLM-13, single agent, 7 days, Annexin-V staining, read-out: Midpoint value (EC50) of decrease in total content of viable cells",364 ± 18 nM
same,"Apoptotic cells (Annexin-V staining), single agent","[7]; MOLM-13, after 7 days of treatment",concentration-dependent increase in apoptotic cells
same,"Apoptosis induction over 14 day course, single agent",[7]; MOLM-13,much more robust induction of apoptosis
same,"Sub-G1 cell population, single agent",[7]; MOLM-13,"moderate, time-dependent increase in sub-G1 population"
